Test results as given in patent US6358953B1, “Pterin antineoplastic agents” (priority 1998, dated 2002).

Assays:
[1] = test system: C3H/HeN-MTV+ mammary gland adenocarcinoma; details: oral gavage 3/16 mL of 5 mM pterin in 1.25 mM CaCl2 daily (about 7 mg/kg/day) for 8 days; Figure One
Experimental: LaRusso, P., et al. Cancer Research 50: 4900-4905 (1990). T/C is the ratio between the median tumor volume (MTV) of the Test group of tumor producing mice and the MTV of the Control group of mice. […] The median tumor volume of each group is determined, including zeros (remissions), for each day of measurement. The T/C value in percentage is an indication of antitumor effectiveness (Figure Two). A T/C equal to or less than 42% is considered significant antitumor activity. A T/C value <10% is indicative of a high degree of antitumor activity and is the level used by the National Cancer Institute to justify systematic toxicology studies preliminary to Investigational New Drug (IND) filing (termed DN-2 level activity).
The A-line at 42% represents the level of activity established by the N.C.I. for “significant antitumor activity”. The B-line at about 10% depicts the level representing a “high degree of antitumor activity”.

[2] = test system: MDA MB 231 breast cancer cells; test: Human breast tumor xenograft in athymic nude mice, oral gavage; format: in vivo; details: oral gavage once daily for 14 days, 3/16 mL, Figure Three
Text: This study evaluated the activity of the test agent, CaPterin, on human mammary tumor xenografts in mice. Athymic nude (nu/nu) female mice, age 3-4 weeks, were purchased from Harlan Spreague Dawley, Inc. (Indianapolis, Ind.). The animals were housed four per cage in sterile filter-topped cages in ventilated cage racks and Microisolator™ cages (LabProducts, DE). Upon arrival, the mice were quarantined for at least four working days before use. The animal facility is AAALAC-accredited. Temperature is maintained at 72+/−5° F. and relative humidity at 35-70%; a 12-hour light/dark cycle was used. The mice were fed sterile, autoclavable, certified Purina rodent chow ad libitum. […] The water supply is analyzed quarterly for metals and trace contaminants. […]
Tumor dimensions and body weights were measured 4 times weekly for approximately three weeks from the start of treatment. Tumors were measured in three planes using Vernier calipers, and tumor volume (V) was calculated as follows: V=pi(x x y x z)/6, where x, y, and z are the tumor measurements minus skin thickness. The mean tumor volume was calculated at each time point. For each group, the mean of the ratio V/Vo was plotted as a function of time after treatment, and tumor growth delay calculated. Treatment toxicity was assessed from reductions in body weight after treatment. […]

[3] = Treatment toxicity (body weight reduction) in athymic nude mice; format: in vivo; details: oral gavage once daily for 14 days; assessed from reductions in body weight
Experimental: MDA MB 231 breast cancer cells (5,000,000 cells in 100 uL of phosphate buffered saline) were injected subcutaneously into the right leg of female immunodeficient athymic nude mice. When the tumors reached a mean diameter of 3-5 mm, the mice were divided into two groups (8 mice per treatment group), and the treatment begun. The mice were treated by oral gavage once daily for 14 days with either 3/16 mL of the vehicle control (water) or with 3/16 mL of 5 mM CaCl2 .Pterin from Example 2.
Tumor dimensions and body weights were measured 4 times weekly for approximately three weeks from the start of treatment. Tumors were measured in three planes using Vernier calipers, and tumor volume (V) was calculated as follows: V=pi(x x y x z)/6, where x, y, and z are the tumor measurements minus skin thickness. The mean tumor volume was calculated at each time point. For each group, the mean of the ratio V/Vo was plotted as a function of time after treatment, and tumor growth delay calculated. Treatment toxicity was assessed from reductions in body weight after treatment. The mice were sacrificed if their tumor volumes reached greater than or equal to 1600 mm^3 or weight loss exceeded 25%.

[4] = pterin suspensions tested by the NIH; cited from earlier work

With CaCl2(pterin)4 the “median tumor volume (MTV) relative to controls” value [1] was “strongly regresses tumor growth relative to controls”.

For CaCl2(pterin)4 [CaPterin], the “mean growth response as relative tumor volume (V/Vo) relative to controls” value [2] was “strongly regresses tumor growth relative to controls” and the “toxicity throughout the course of treatment” value [3] was “no evidence of toxicity”.

In the case of `Nc1nc2nccnc2c(=O)[nH]1` [Pterin], the antineoplastic activity [4] is listed as “no significant antineoplastic activity”.
